Results taken from patent publication US11034650B2, “Compounds useful for treating a Mannheimia haemolytica or Histophilus somni infection” (Intervet Inc., priority 2016, dated 2021).
In brackets after ≈: the same amount, converted by molar mass.

Tests used:
Format in all cases: cell-based
[1] = system: Mannheimia haemolytica MH 6357 (M7/2, reference strain, cattle infection strain); assay: MIC, broth-microdilution (CLSI VET01-A4), strain MH 6357; conditions: Mannheimia haemolytica strain MH 6357, broth-microdilution; unit assumed
Procedure, shortened: (§1)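 Doubling dilution series in trays; visual read, MIC = lowest conc. with no visible turbidity; interpretation per CLSI VET01-S3.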

[2] = system: Mannheimia haemolytica MH 6374 (ATCC 33396, reference strain); assay: MIC, broth-microdilution (CLSI VET01-A4), strain MH 6374; conditions: Mannheimia haemolytica strain MH 6374, broth-microdilution; unit assumed
Procedure, shortened: as §1

[3] = system: Mannheimia haemolytica MH 10720 (154, BRD field isolate); assay: MIC, broth-microdilution (CLSI VET01-A4), strain MH 10720; conditions: Mannheimia haemolytica strain MH 10720, broth-microdilution; unit assumed
Procedure, shortened: as §1

[4] = system: Mannheimia haemolytica MH 12587 (1071, BRD field isolate, macrolide-resistance: erm+, E+); assay: MIC, broth-microdilution (CLSI VET01-A4), strain MH 12587; conditions: Mannheimia haemolytica strain MH 12587, broth-microdilution; unit assumed
Procedure, shortened: as §1

[5] = system: Mannheimia haemolytica MH 13065 (XB0446-6003.9, BRD field isolate); assay: MIC, broth-microdilution (CLSI VET01-A4), strain MH 13065; conditions: Mannheimia haemolytica strain MH 13065, broth-microdilution; unit assumed
Procedure, shortened: as §1

[6] = system: Mannheimia haemolytica MH 13093 (XB0472-6014.1, BRD field isolate); assay: MIC, broth-microdilution (CLSI VET01-A4), strain MH 13093; conditions: Mannheimia haemolytica strain MH 13093, broth-microdilution; unit assumed
Procedure, shortened: as §1

[7] = system: Pasteurella multocida PM 6267 (P 2225 (L386), reference strain, mouse infection strain); assay: MIC, broth-microdilution (CLSI VET01-A4), strain PM 6267; conditions: Pasteurella multocida strain PM 6267, broth-microdilution; unit assumed
Procedure, shortened: as §1

[8] = system: Pasteurella multocida PM 6391 (ATCC 43137, reference strain); assay: MIC, broth-microdilution (CLSI VET01-A4), strain PM 6391; conditions: Pasteurella multocida strain PM 6391, broth-microdilution; unit assumed
Procedure, shortened: as §1

[9] = system: Pasteurella multocida PM 10775 (080130003051, BRD field isolate); assay: MIC, broth-microdilution (CLSI VET01-A4), strain PM 10775; conditions: Pasteurella multocida strain PM 10775, broth-microdilution; unit assumed
Procedure, shortened: as §1

[10] = system: Pasteurella multocida PM 12080 (IV102277-0093, BRD field isolate); assay: MIC, broth-microdilution (CLSI VET01-A4), strain PM 12080; conditions: Pasteurella multocida strain PM 12080, broth-microdilution; unit assumed
Procedure, shortened: as §1

Structure (SMILES)	MIC MH 6357 [1] [µg/mL]	MIC MH 6374 [2] [µg/mL]	MIC MH 10720 [3] [µg/mL]	MIC MH 12587 [4] [µg/mL]	MIC MH 13065 [5] [µg/mL]	MIC MH 13093 [6] [µg/mL]	MIC PM 6267 [7] [µg/mL]	MIC PM 6391 [8] [µg/mL]	MIC PM 10775 [9] [µg/mL]	MIC PM 12080 [10] [µg/mL]
CSC(C)(C)[C@H](NC(=O)c1ccc(C#Cc2ccc(CNCc3ccccc3)cc2)cc1)C(=O)NO [Compound 239]	0.8 (≈ 1.59 µM)	1.6 (≈ 3.19 µM)	0.2 (≈ 0.399 µM)	1.6 (≈ 3.19 µM)	0.8 (≈ 1.59 µM)	0.8 (≈ 1.59 µM)	0.2 (≈ 0.399 µM)	0.4 (≈ 0.797 µM)	≤ 0.1	0.4 (≈ 0.797 µM)
COc1ccc(CNCc2ccc(C#Cc3ccc(C(=O)N[C@H](C(=O)NO)C(C)(C)SC)cc3)cc2)cc1 [Compound 240]	1.6 (≈ 3.01 µM)	1.6 (≈ 3.01 µM)	0.4 (≈ 0.752 µM)	1.6 (≈ 3.01 µM)	1.6 (≈ 3.01 µM)	1.6 (≈ 3.01 µM)	0.2 (≈ 0.376 µM)	0.8 (≈ 1.5 µM)	0.2 (≈ 0.376 µM)	0.4 (≈ 0.752 µM)
CSC(C)(C)[C@H](NC(=O)c1ccc(C#Cc2ccc(CNCc3ccncc3)cc2)cc1)C(=O)NO [Compound 241]	0.4 (≈ 0.796 µM)	0.8 (≈ 1.59 µM)	≤ 0.1	0.8 (≈ 1.59 µM)	0.4 (≈ 0.796 µM)	0.4 (≈ 0.796 µM)	≤ 0.1	≤ 0.1	≤ 0.1	≤ 0.1
CSC(C)(C)[C@H](NC(=O)c1ccc(C#Cc2ccc(CN3CCCC3)cc2)cc1)C(=O)NO [Compound 242]	6.3 (≈ 13.5 µM)	6.3 (≈ 13.5 µM)	0.8 (≈ 1.72 µM)	6.3 (≈ 13.5 µM)	3.1 (≈ 6.66 µM)	3.1 (≈ 6.66 µM)	0.4 (≈ 0.859 µM)	1.6 (≈ 3.44 µM)	0.2 (≈ 0.43 µM)	0.8 (≈ 1.72 µM)
CSC(C)(C)[C@H](NC(=O)c1ccc(C#Cc2ccc(CNC3CCC3)cc2)cc1)C(=O)NO [Compound 243]	3.1 (≈ 6.66 µM)	3.1 (≈ 6.66 µM)	0.4 (≈ 0.859 µM)	3.1 (≈ 6.66 µM)	1.6 (≈ 3.44 µM)	1.6 (≈ 3.44 µM)	0.2 (≈ 0.43 µM)	0.8 (≈ 1.72 µM)	≤ 0.1	0.4 (≈ 0.859 µM)
CSC(C)(C)[C@H](NC(=O)c1ccc(C#Cc2ccc(CNC3CCCC3)cc2)cc1)C(=O)NO [Compound 244]	3.1 (≈ 6.46 µM)	6.3 (≈ 13.1 µM)	1.6 (≈ 3.34 µM)	6.3 (≈ 13.1 µM)	3.1 (≈ 6.46 µM)	6.3 (≈ 13.1 µM)	0.4 (≈ 0.834 µM)	1.6 (≈ 3.34 µM)	0.2 (≈ 0.417 µM)	0.8 (≈ 1.67 µM)
CCCNCc1ccc(C#Cc2ccc(C(=O)N[C@H](C(=O)NO)C(C)(C)SC)cc2)cc1 [Compound 245]	3.1 (≈ 6.83 µM)	3.1 (≈ 6.83 µM)	0.4 (≈ 0.882 µM)	3.1 (≈ 6.83 µM)	1.6 (≈ 3.53 µM)	3.1 (≈ 6.83 µM)	0.4 (≈ 0.882 µM)	0.8 (≈ 1.76 µM)	≤ 0.1	0.8 (≈ 1.76 µM)
CSC(C)(C)[C@H](NC(=O)c1ccc(C#Cc2ccc(CNCC#N)cc2)cc1)C(=O)NO [Compound 246]	0.4 (≈ 0.888 µM)	0.8 (≈ 1.78 µM)	≤ 0.1	0.8 (≈ 1.78 µM)	0.8 (≈ 1.78 µM)	0.4 (≈ 0.888 µM)	≤ 0.1	0.2 (≈ 0.444 µM)	≤ 0.1	0.2 (≈ 0.444 µM)
CSC(C)(C)[C@H](NC(=O)c1ccc(C#Cc2ccc(CNCc3cccnc3)cc2)cc1)C(=O)NO [Compound 247]	0.4 (≈ 0.796 µM)	0.8 (≈ 1.59 µM)	0.2 (≈ 0.398 µM)	0.8 (≈ 1.59 µM)	0.4 (≈ 0.796 µM)	0.8 (≈ 1.59 µM)	≤ 0.1	0.8 (≈ 1.59 µM)	≤ 0.1	0.2 (≈ 0.398 µM)
CSC(C)(C)[C@H](NC(=O)c1ccc(C#Cc2ccc(CNCc3ccnc(Cl)c3)cc2)cc1)C(=O)NO [Compound 248]	1.6 (≈ 2.98 µM)	1.6 (≈ 2.98 µM)	0.4 (≈ 0.745 µM)	1.6 (≈ 2.98 µM)	1.6 (≈ 2.98 µM)	1.6 (≈ 2.98 µM)	0.4 (≈ 0.745 µM)	0.8 (≈ 1.49 µM)	0.2 (≈ 0.372 µM)	0.8 (≈ 1.49 µM)
